# Assay results reported in the NIST ThermoML archive (doi:10.1016/j.tca.2006.04.004).
# ± gives the expanded uncertainty stated by the source.
# How the values were obtained:
# [1] = 101.33 kPa, Liquid, Pycnometric method
# [2] = mn = molality of the nth substance listed, in mol/kg; details: 101 kPa, Liquid, Pycnometric method, m1 = 1.5
mass density ([1]; 308.15 K) [kg/m3],mass density ([1]; 318.15 K) [kg/m3],mass density ([1]; 323.15 K) [kg/m3],SMILES,mass density ([2]; 298.15 K) [kg/m3],mass density ([2]; 303.15 K) [kg/m3],mass density ([2]; 308.15 K) [kg/m3],mass density ([2]; 313.15 K) [kg/m3],mass density ([2]; 318.15 K) [kg/m3],mass density ([2]; 323.15 K) [kg/m3]
994.2 ± 0.5,990.3 ± 0.5,987.9 ± 0.5,O [water],,,,,,
,,,[Cl-].[Na+] [sodium chloride] + O,1058.8 ± 0.6,1056.1 ± 0.6,1053.8 ± 0.6,1051.4 ± 0.6,1048.8 ± 0.6,1046.2 ± 0.6
,,,O=[N+]([O-])[O-].[K+] [potassium nitrate] + O,1086.9 ± 0.6,1085 ± 0.6,1083 ± 0.6,1080.6 ± 0.6,1077.9 ± 0.6,1075 ± 0.6
,,,O=[N+]([O-])[O-].[Na+] [sodium nitrate] + O,1079.1 ± 0.6,1076.5 ± 0.6,1073.5 ± 0.6,1070.3 ± 0.6,1067 ± 0.6,1063.7 ± 0.6
